{"source": "patent US20230181597A1", "about": "“METAL COMPLEXES OF NOCARDAMINE AND THEIR USE IN PHARMACEUTICAL COMPOSITIONS” (priority 2014, published 2023)", "key": {"TNF-α": {"tested_on": "TNF-α", "assay": "TNF-α level in ear tissue of ICD mice (ELISA)", "assay_type": "in vivo, Balb/c female mice", "conditions": "t=6 h after croton oil, 0.5% ointment (FIG. 6C)", "description": "(§1) The samples were homogenized, and protein concentration was measured by Bradford procedure. The concentration of cytokines was determined by ELISA method, using commercially available kits according to the Manufacturer's protocols (RayBiotech, GA, USA).\n(§2) In order to study the underlying mechanism of the zinc-nocardamine complex, its assumed anti-inflammatory activity was tested by measuring the concentrations of various pro-inflammatory cytokines, in the ears, along the experimental protocol, specifically, IL-1α, IL-6, IL-17 and TNF-α. The concentration of these cytokines were measured in ear tissue that had been exposed to croton oil (at t=0) and was left untreated to t=6 h. The concentration was compared to the concentrations at t=6 h, in ears which were exposed at t=0, and treated with the complex at t=3 h.\n(§3) The effect of ICD-induced inflammatory process on the concentration of IL-1α, IL-6, TNF-α and IL-17 within the ear tissue is shown in FIG. 6A-6D. […] The concentration of the cytokines was determined by ELISA method, using commercially available kits, according to the Manufacturer protocol (RayBiotech, GA, USA)"}, "S. aureus [1]": {"tested_on": "S. aureus", "assay": "Bacterial growth curves (OD, 96-well plate, 24 h)", "assay_type": "cell-based, Staphylococcus aureus", "description": "(§4) The anti-bacterial effect of zinc-nocardamine was assessed on the following types of pathogenic bacteria: E. coli (Gram-negative), P. aeruginosa (Gram-negative) and S. aureus (Gram-positive) (isolated in Hadassah-Ein Karem Hospital). More specifically, the experiment was performed as following: Each bacterial strain was grown overnight at 37° C., under aeration of 200 rpm, in the appropriate medium (EPEC (E. coli)) and P. aeruginosa in LB broth, S. aureus in BHI broth. Both media were purchased from BD (NJ, USA). Series of three-fold consecutive dilutions were performed in a 96-well plate, and bacteria were then added to the wells at a final OD600 of 0.01. The experiments with all three strains were performed in duplicate. […] Then the plate was incubated in a plate reader for 24 h, and the kinetics of OD measurements were recorded every 20 minutes by Eon plate reader (BioTek, VE, USA). […]\n(§5) The anti-bacterial effect of zinc-nocardamine was assessed on the following types of pathogenic bacteria: E. coli (Gram-negative), P. aeruginosa (Gram-negative) and S. aureus (Gram-positive) (isolated in Hadassah-Ein Karem Hospital). […] The plate was then incubated in a plate reader for 24 h, and the kinetics of OD measurements were recorded, every 20 minutes. […]"}, "IL-13": {"tested_on": "IL-13", "assay": "IL-13 level in ear tissue of ICD mice (ELISA)", "assay_type": "in vivo, Balb/c female mice", "conditions": "0.5% ointment at t=3 h, measured at t=6 h (FIG. 7)", "description": "as §1\nThe assumed anti-inflammatory activity of the zinc-nocardamine complex was tested by measuring the concentrations of various anti-inflammatory cytokines, specifically, IL-4, IL-10 and IL-13, in ear tissue of mice. The concentrations of these cytokines were measured and their pattern of change along the experiment was compared for each: at baseline t=0 (no exposure), at t=3 h after exposure to croton oil, at t=6 h after exposure to croton oil, and at 6 h after exposure to croton oil where these ears had been treated with the zinc-nocardamine complex at t=3 h after the exposure to the croton oil. […] The concentration of the cytokines was determined by ELISA method, using commercially available ELISA kits, according to the Manufacturer protocol (RayBiotech, GA, USA; Diaclone, Besançon, France)."}, "IL-1α": {"tested_on": "IL-1α", "assay": "IL-1α level in ear tissue of ICD mice (ELISA)", "assay_type": "in vivo, Balb/c female mice", "conditions": "t=6 h after croton oil, 0.5% ointment (FIG. 6A)", "description": "as §1, §2, §3"}, "IL-6": {"tested_on": "IL-6", "assay": "IL-6 level in ear tissue of ICD mice (ELISA)", "assay_type": "in vivo, Balb/c female mice", "conditions": "t=6 h after croton oil, 0.5% ointment (FIG. 6B)", "description": "as §1, §2, §3"}, "E. coli (EPEC)": {"tested_on": "E. coli (EPEC)", "assay": "Bacterial growth curves (OD, 96-well plate, 24 h)", "assay_type": "cell-based, Escherichia coli", "conditions": "1.7 mg/ml (FIG. 8A)", "description": "as §4, §5"}, "S. aureus [2]": {"tested_on": "S. aureus", "assay": "Bactericidal activity (bacterial viability) on Petri dishes", "assay_type": "cell-based, Staphylococcus aureus", "conditions": "5 mg/ml (FIG. 9C)", "description": "(§6) The concentrations of zinc-nocardamine, in four quadrants (1-4) of a Petri dish, were set as follows: 1-0 mg/ml; 2-5 mg/ml; 3-1.7 mg/ml; 4-0.5 mg/ml.\n(§7) The anti-bacterial effect of zinc-nocardamine was assessed on the following types of pathogenic bacteria: E. coli (Gram-negative), P. aeruginosa (Gram-negative) and S. aureus (Gram-positive) (isolated in Hadassah-Ein Karem Hospital). More specifically, the experiment was performed as following: Each bacterial strain was grown overnight at 37° C., under aeration of 200 rpm, in the appropriate medium (EPEC (E. coli)) and P. aeruginosa in LB broth, S. aureus in BHI broth. Both media were purchased from BD (NJ, USA). Series of three-fold consecutive dilutions were performed in a 96-well plate, and bacteria were then added to the wells at a final OD600 of 0.01. The experiments with all three strains were performed in duplicate. Zinc-nocardamine 10 mg/ml aqueous solution was prepared in advance; prior to the experiment it was diluted in the appropriate media in a ratio of 1:2, to obtain a stock concentration of 5 mg/ml. This stock was further diluted to 1.7, 0.5, 0.18, 0.06, 0.02, 0.002, 0.0007, and 0.0002 mg/ml and added to appropriate wells. Then the plate was incubated in a plate reader for 24 h, and the kinetics of OD measurements were recorded every 20 minutes by Eon plate reader (BioTek, VE, USA). […]"}, "E. coli": {"tested_on": "E. coli", "assay": "Bactericidal activity (bacterial viability) on Petri dishes", "assay_type": "cell-based, Escherichia coli", "conditions": "5 mg/ml (FIG. 9A)", "description": "as §6, §7"}, "IL-17": {"tested_on": "IL-17", "assay": "IL-17 level in ear tissue of ICD mice (ELISA)", "assay_type": "in vivo, Balb/c female mice", "conditions": "t=6 h after croton oil, 0.5% ointment (FIG. 6D)", "description": "as §1, §2, §3"}, "P. aeruginosa [3]": {"tested_on": "P. aeruginosa", "assay": "Bactericidal activity (bacterial viability) on Petri dishes", "assay_type": "cell-based, Pseudomonas aeruginosa", "conditions": "5 mg/ml (FIG. 9B)", "description": "as §6, §7"}, "P. aeruginosa [4]": {"tested_on": "P. aeruginosa", "assay": "Bacterial growth curves (OD, 96-well plate, 24 h)", "assay_type": "cell-based, Pseudomonas aeruginosa", "conditions": "1.7 mg/ml (FIG. 8B)", "description": "as §4, §5"}, "[5]": {"tested_on": "croton oil-induced irritant contact dermatitis (ICD) in mice ears", "assay": "Croton oil-induced irritant contact dermatitis (ICD) model, ear swelling", "assay_type": "in vivo, Balb/c female mice"}, "[6]": {"tested_on": "Bombyx mori (silkworm) ovary-derived cultured cell line cells", "conditions": "reported in the literature; cited from earlier work"}, "[7]": {"conditions": "cited from earlier work"}}}
{"molecule": "zinc-nocardamine complex", "values": [{"measurement": "concentration of TNF-α in ear tissue", "setting": "TNF-α", "result": "reduced the concentration of the cytokines to nearly the basal level"}, {"measurement": "growth inhibition of S. aureus", "setting": "S. aureus [1]; 0.5 mg/ml (FIG. 8C)", "result": "growth inhibition was observed"}, {"measurement": "growth inhibition of S. aureus", "setting": "S. aureus [1]; 1.7 mg/ml (FIG. 8C)", "result": "growth inhibition was observed"}, {"measurement": "IL-13 level in ear tissue", "setting": "IL-13", "result": "restoring the IL-13 level back to its baseline level"}, {"measurement": "concentration of IL-1α in ear tissue", "setting": "IL-1α", "result": "reduced the concentration of the cytokines to nearly the basal level"}, {"measurement": "concentration of IL-6 in ear tissue", "setting": "IL-6", "result": "reduced the concentration of the cytokines to nearly the basal level"}, {"measurement": "growth inhibition of E. coli", "setting": "E. coli (EPEC)", "result": "growth inhibition was observed"}, {"measurement": "bactericidal activity on S. aureus", "setting": "S. aureus [2]", "result": "bactericidal activity was obtained"}, {"measurement": "bactericidal activity on E. coli", "setting": "E. coli", "result": "bactericidal activity was obtained"}, {"measurement": "concentration of IL-17 in ear tissue", "setting": "IL-17", "result": "reduced the concentration of the cytokines to nearly the basal level"}, {"measurement": "bactericidal activity on P. aeruginosa", "setting": "P. aeruginosa [3]", "result": "bactericidal activity was obtained"}, {"measurement": "growth inhibition of P. aeruginosa", "setting": "P. aeruginosa [4]", "result": "mild inhibition"}, {"measurement": "optimal concentration in Vaseline-based ointment", "setting": "[5]; dose-response 0.1, 0.2, 0.5%, applied 3 h after irritant (FIG. 3)", "result": 0.5, "unit": "%"}]}
{"molecule": "O=C1CCC(=O)N(O)CCCCCNC(=O)CCC(=O)N(O)CCCCCNC(=O)CCC(=O)N(O)CCCCCN1", "note": "[nocardamine]", "values": [{"measurement": "change of cell morphology", "setting": "[6]", "result": "change the morphology of insect Bombyx mori (silkworm) ovary-derived cultured cell line cells into spindle-like configuration"}, {"measurement": "water solubility (description)", "setting": "[7]", "result": "soluble in water with heating"}, {"measurement": "recovery from ICD versus untreated and zinc-nocardamine groups", "setting": "[5]; 0.5% w/w ointment applied 3 h after croton oil (FIG. 2B)", "result": "recovered better than the untreated ones, their recovery was much slower than the recovery observed in mice that received zinc-nocardamine complex"}]}
{"molecule": "CC(=O)N(O)CCCCCNC(=O)CCC(=O)N(O)CCCCCNC(=O)CCC(=O)N(O)CCCCCN", "note": "[desferrioxamine B]", "values": [{"measurement": "water solubility", "setting": "[7]", "result": "about 50 mg/ml"}]}
